Like-named read-outs stand apart in the source and are kept apart here. Non-standard residues stand in square brackets, D forms with d. Residues, ends and D or L forms follow the SMILES beside them. No end group written: not given here. Met(O) = CS(=O)CC[C@H](N)C(=O)O
Legend:
[1] = system: spontaneously hypertensive rats (SHRs); test: Antihypertensive effect on SHRs (tail-cuff SBP and DBP); format: in vivo, rat; details: positive control, single oral dose 10 mg/kg body weight
Protocol: Spontaneously hypertensive rats (SHRs) (male, 10-week-old, 250–300 g body weight, specific, pathogen-free) were bought from Vital River Laboratory Animal Co., Ltd. (Beijing, China). Animals used in this study were maintained in accordance with the guidelines of the Institutional Research Council’s Guide for the Care and Use of Laboratory Animals. SHRs were housed under 12 h day/night cycle at 22 ± 2 °C and fed with tap water and a standard diet ad libitum. The SHRs were randomly separated into a positive group, control group, and two experiment groups. There were six SHRs in each group. Before the formal start of the test, SHRs had to adapt to measuring the environment in advance. Once the tail systolic blood pressure (SBP) rates were above 180 mmHg, the gavage administration could start.
Normal saline was the solvent to dissolve peptides and control reagent. Captopril (99% purity, Solarbio Technology Co., Ltd., Beijing, China) was the positive group. The same volume of normal saline was the control group. Tail-cuff method was performed for systolic blood pressure (SBP) and diastolic blood pressure (DBP) measurements with a non-invasive CODA device (Kent Scientific Co., Torrington, CT, USA). The blood pressure was measured in 0, 1, 2, 4, 6, 8 h after gavage administration. Measurements were repeated three times at each time point.

ACE = system: ACE; design: method as in 6 sources, ref 31 = [31]; doi:10.1007/s00217-017-2886-2; 31. Cao D. Lv X. Xu X. Yu H. Sun X. Xu N. Purification and identification of a novel ACE inhibitory peptide from marine alga Gracilariopsis lemaneiformis protein hydrolysate Eur. Food Res. Technol. 20 ||| ref 32, 33 = [32]; doi:10.1016/j.procbio.2017.08.009; 32. Guo M. Chen X. Wu Y. Zhang L. Huang W. Yuan Y. Fang M. Xie J. Wei D. Angiotensin I-converting enzyme inhibitory peptides from Sipuncula ( Phascolosoma esculenta ): Purification, identification, mo || [33]; doi:10.1080/00021369.1987.10868415; 33. Maruyama S. Mitachi H. Awaya J. Kurono M. Tomizuka N. Suzuki H. Angiotensin I-Converting Enzyme Inhibitory Activity of the C-Terminal Hexapeptide of αs1-Casein Agric. Biol. Chem. Tokyo 1987 51 255 ||| ref 7 = [7]; 7. Fujita H. Yokoyama K. Yoshikawa M. Classification and antihypertensive activity of angiotensin I-converting enzyme inhibitory peptides derived from food proteins J. Food Sci. 2000 65 564 569 ||| ref 43 = [43]; PMID 24866326; doi:10.1021/jf501368a; 43. Duan X. Wu F. Li M. Yang N. Wu C. Jin Y. Yang J. Jin Z. Xu X. Naturally occurring angiotensin I-Converting enzyme inhibitory peptide from a fertilized egg and its inhibitory mechanism J. Agric. Fo ||| ref 44 = [44]; doi:10.1016/j.foodres.2012.11.002; 44. Liu X. Zhang M. Jia A. Zhang Y. Zhu H. Zhang C. Sun Z. Liu C. Purification and characterization of angiotensin I converting enzyme inhibitory peptides from jellyfish Rhopilema esculentum Food Res. ||| ...; details: cited from earlier work; for Inhibition pattern on ACE: peptides isolated from food stuffs, ref 37 (IFL), 38 (AVKVL), 39 (VELWP)
[2] = cited from earlier work
From the text: Antihypertensive activity of peptides were further evaluated using spontaneously hypertensive rats (SHRs). […] Overall, drugs can exert better antihypertensive effects than hydrolysates and antihypertensive peptides derived from foods. […] Both FQIN [M(O)] CILR and TGAPCR decreased the SBP of SHRs. FQIN [M(O)] CILR and TGAPCR reduced the SBP of SHRs by 34 mmHg and 28 mmHg to the maximum extent, re ...

ACE (from rabbit lung) [3] = target: T1, ACE (from rabbit lung) (Oryctolagus cuniculus, UniProt P12822); test: Determination of inhibitory pattern (Lineweaver-Burk plots); format: biochemical; details: X-axis intercept of the plot of Lineweaver-Burk slopes against peptide concentration
T1 construct: ACE (from rabbit lung); purchased Sigma-Aldrich Co. (St. Louis, MO, USA); host or cells: rabbit lung tissue
T1 sequence (P12822 34-1310): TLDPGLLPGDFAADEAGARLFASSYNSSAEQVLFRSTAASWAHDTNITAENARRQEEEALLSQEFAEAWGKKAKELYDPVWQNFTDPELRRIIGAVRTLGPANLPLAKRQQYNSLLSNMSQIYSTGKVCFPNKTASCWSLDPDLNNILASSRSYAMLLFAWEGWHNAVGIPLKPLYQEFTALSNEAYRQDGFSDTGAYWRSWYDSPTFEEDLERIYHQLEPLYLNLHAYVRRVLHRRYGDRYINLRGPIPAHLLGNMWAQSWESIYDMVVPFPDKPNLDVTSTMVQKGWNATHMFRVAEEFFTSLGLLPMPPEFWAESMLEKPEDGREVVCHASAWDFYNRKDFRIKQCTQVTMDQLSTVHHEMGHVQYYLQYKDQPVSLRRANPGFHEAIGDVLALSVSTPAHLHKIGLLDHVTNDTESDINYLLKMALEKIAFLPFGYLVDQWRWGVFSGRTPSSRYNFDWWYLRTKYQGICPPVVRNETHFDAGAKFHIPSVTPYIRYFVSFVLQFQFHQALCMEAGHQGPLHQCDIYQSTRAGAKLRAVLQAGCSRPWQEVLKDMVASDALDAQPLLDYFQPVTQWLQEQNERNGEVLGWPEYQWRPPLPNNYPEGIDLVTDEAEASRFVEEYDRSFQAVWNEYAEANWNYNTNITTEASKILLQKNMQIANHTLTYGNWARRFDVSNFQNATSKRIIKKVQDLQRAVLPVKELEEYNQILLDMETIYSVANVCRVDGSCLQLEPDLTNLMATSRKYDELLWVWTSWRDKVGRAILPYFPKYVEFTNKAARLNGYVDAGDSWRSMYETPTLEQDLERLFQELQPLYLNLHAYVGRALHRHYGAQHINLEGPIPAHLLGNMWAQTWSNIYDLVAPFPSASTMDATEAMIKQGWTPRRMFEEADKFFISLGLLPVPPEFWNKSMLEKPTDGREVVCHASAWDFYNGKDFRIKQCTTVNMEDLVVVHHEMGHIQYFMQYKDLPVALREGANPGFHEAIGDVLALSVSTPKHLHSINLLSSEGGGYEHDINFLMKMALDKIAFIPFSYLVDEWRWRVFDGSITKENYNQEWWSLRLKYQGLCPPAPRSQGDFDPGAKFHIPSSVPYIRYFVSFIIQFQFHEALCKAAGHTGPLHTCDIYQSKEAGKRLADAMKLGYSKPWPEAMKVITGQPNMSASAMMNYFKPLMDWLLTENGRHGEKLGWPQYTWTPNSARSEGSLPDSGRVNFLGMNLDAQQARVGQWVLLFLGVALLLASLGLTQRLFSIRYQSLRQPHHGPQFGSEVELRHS
Protocol: (§1) ACE (from rabbit lung), hippuryl-histidyl-leucine (HHL), high-performance liquid chromatography (HPLC)-grade acetonitrile (ACN), trifluoroaceticacid (TFA) and porcine pancreatin (8× USP) were purchased from Sigma-Aldrich Co. (St. Louis, MO, USA). Trypsin (EC […], ≥250. N.F.U/mg solid), pepsin (EC 3.4.23.1, ≥250 U/mg solid), and captopril (>99% purity) were obtained from Solarbio (Beijing, China). All other chemical reagents were of analytical grade.
(§2) ACE inhibition activity was assayed according to Cushman and Cheung, with some modification. ACE was dissolved in sodium borate buffer (pH 8.3, containing 0.3 M sodium chloride) to 0.1 U/mL for the assay. Synthetic peptides were dissolved in distilled water to seven concentration levels. Then, 20 μL of a certain concentration of peptide was mixed with 10 μL ACE solution. The mixture was incubated at 37 °C for 5 min, and then 50 μL of 5 mM HHL (sodium borate buffer pH 8.3, containing 0.3 M sodium chloride) was added to the above mixture to start the reaction. […] The absorbance was detected at 228 nm. […] The activity of ACE inhibition was calculated as followed:ACE inhibitory activity (%) = (Acontrol − Ainhibitor)/Acontrol × 100 where Ainhibitor is the relative area of the hippuric acid (HA) peak obtained from the reaction of ACE and HHL with inhibitor. […]

ACE (from rabbit lung) [4] = target: T1, ACE (from rabbit lung); test: ACE inhibition activity assay (HHL substrate, hippuric acid by RP-HPLC); format: biochemical; details: 0.1 U/mL ACE, 5 mM HHL, sodium borate buffer pH 8.3 with 0.3 M NaCl, 37 °C, 60 min; seven peptide concentrations; triplicate, mean ± SD
Protocol: as §1, §2

ACE (from rabbit lung) [5] = target: T1, ACE (from rabbit lung); test: Stability of peptides against ACE; format: in vitro ADME; details: 0.1 mg/mL peptide with 0.1 U/mL ACE, 37 °C, 24 h; read-out ACE inhibitory activity; mean ± SD, n = 3
From the text: as §1
The stability of peptides against ACE was assayed according to Salampessy. J and Fujita. H [48, 49]. 30 μL of peptides (0.1 mg/mL) reacted with 30 μL 0.1 U/mL ACE solution at 37 °C for 24 h. The ACE was then inactivated through boiling the solution for 10 min. Then, 20 μL of peptides were used to detect ACE inhibitory activity in the above method.

[6] = Observed water solubility of the peptide; format: physicochemical; details: when the concentration was lower than 10 mg/mL; solubility gradually decreased above 10 mg/mL
From the text: The properties and stabilities of peptides are prerequisites for the preparation of "functional peptides". According to the information in the Innovagen server, FQIN [M(O)] CILR has poor water solubility. […] The hydrophobicity of FQIN [M(O)] CILR is related to the presence of hydrophobic amino acids, such as Phe, Leu, Ile, and Met. The hydrophobicity of FQIN [M(O)] CILR may facilitate the binding of peptides to the hydrophobic active center of ACE, in turn, produce better inhibitory activity.

[7] = peptide isolated from dried bonito, before pre-incubation with ACE, read-out: IC50 (ACE inhibition)
[8] = peptides isolated from jellyfish, read-out: IC50 (ACE inhibition)
[9] = reported C-terminal arginine ACE inhibitory peptides, read-out: IC50 (ACE inhibition)

C[C@H](CS)C(=O)N1CCC[C@H]1C(=O)O [captopril]
Antihypertensive effect on SHRs (in words) [1]: maximal antihypertensive effect

LKPNM
IC50 after the pre-incubation with ACE, as fraction of the IC50 before (ACE; hydrolyzed into LKP and NM): 1/3
IC50 (ACE; [7]): 2.4 µM

QPGPT
Reduction of SBP [2]: 13.75 mmHg
IC50 (ACE; [8]): 80.7 µM

YASGR
IC50 (ACE; [9]): 184 µM

AVKVL
Inhibition pattern on ACE (ACE): noncompetitive inhibition

YIPIQYVLSR
IC50 (ACE; [9]): 132 µM

TGAPCR [TGAPCR]
Ki (ACE (from rabbit lung) [3]): 860 ± 60 µM
IC50 (ACE (from rabbit lung) [4]): 23.9 ± 0.82 µM
Stability against ACE hydrolysis (ACE inhibitory activity after incubation with ACE) (ACE (from rabbit lung) [5]): stable ACE inhibitors but not substrates of ACE

FFGRCVSP
IC50 (ACE; [7]): 0.4 µM
IC50 (ACE; peptide isolated from dried bonito, hydrolyzed by ACE to fragments, read-out: IC50 after hydrolysis by ACE): 4.6 µM

QVEY
IC50 (ACE; peptide from trypsin hydrolyzate of G. lemaneiformis, read-out: IC50 (ACE inhibition)): 474 µM

VELWP
Inhibition pattern on ACE (ACE): noncompetitive inhibition

CC[C@H](C)[C@H](NC(=O)[C@H](CS)NC(=O)[C@H](CC[S+](C)[O-])NC(=O)[C@H](CC(N)=O)NC(=O)[C@@H](NC(=O)[C@H](CCC(N)=O)NC(=O)[C@@H](N)Cc1ccccc1)[C@@H](C)CC)C(=O)N[C@@H](CC(C)C)C(=O)N[C@@H](CCCNC(=N)N)C(=O)O (stereo partly drawn) [FQIN [M(O)] CILR] (H-FQIN[Met(O)]CILR-OH)
Ki (ACE (from rabbit lung) [3]): 710 ± 40 µM
water solubility found in the authors' study [6]: good water solubility
IC50 (ACE (from rabbit lung) [4]): 9.64 ± 0.36 µM
Stability against ACE hydrolysis (ACE inhibitory activity after incubation with ACE) (ACE (from rabbit lung) [5]): stable ACE inhibitors but not substrates of ACE

GDIGY
Reduction of SBP [2]: 20.67 mmHg
IC50 (ACE; [8]): 32.6 µM

GNGSGYVSR
IC50 (ACE; [9]): 29 µM

HLFGPPGKKDPV
Greatest SBP drop ([2]; oral dose of 10 mg/kg): 30 mmHg
IC50 (ACE; peptide separated from fertilized eggs, read-out: IC50 (ACE inhibition)): 125 µM
